{"source": "paper PMC8297771", "about": "(PLoS Pathogens, 2021)", "key": {"HIV-1 NL4-3": {"tested_on": "HIV-1 NL4-3", "assay": "In vitro anti-viral assay in MT4 cells", "assay_type": "cell-based"}, "CEMx174 cells": {"tested_on": "CEMx174 cells", "assay": "Tissue culture cytotoxicity measurement in CEMx174 cells", "assay_type": "cell-based", "procedure": "Fig 1 ALLINI structures and STP0404 activities. A. Quinoline-based BI224436, B. Benzothiazole-based GS-9822, C. Pyridine-based KF116, D. Pyrrolopyridine-based STP0404. The conserved chemical moiety containing tert-butoxy and carboxylic acid groups are marked by “]”. E. In vitro anti-HIV-1 efficacy of STP0404 against HIV-1NL4-3 and 89.6 strains in indicated cell lines. TI: Minimal therapeutic index values were calculated with 50% in vitro inhibitory concentration values (IC50) and 10 μM where no sign of cytotoxicity was observed during tissue culture cytotoxicity measurements (TC50) of all tested compounds in both MT4 and CEMx174 cell lines."}, "[1]": {"tested_on": "HIV-1_89.6 passage 14 viral population (Y99H and A128T)", "assay": "Susceptibility of STP0404-selected viral population, passage 14, in CEMx174 cells", "assay_type": "cell-based", "settings": "passage 14 viral population (Y99H and A128T) vs wild type HIV-1_89.6", "procedure": "CEM x174 cells infected with HIV primary isolate 89.6 were cultured in the presence of STP0404 at the concentration of IC90 determined earlier. At each passage, cells from original culture in the presence of inhibitor (0.75x10^6 cells) were mixed with equal amount of no-drug control cells to propagate, and viral replication was monitored by the production of p24 antigen in the supernatant. […] The population of drug-induced mutations at each passage mentioned above was determined by sequencing of at least 10 resulting transformants.\nCEM x174 cells were infected with cell-free viral supernatant collected during virus resistance assays above. […] The viral stocks were normalized by the amount of p24 capsid antigen, determined to infect CEMx174 cells at approximately 10% of populations (10,000 pg / 10^6 cells). […] Cell-free supernatants were measured for p24 antigen production 5 days post-infection. p89.6 plasmid was applied for Quickchange kit (Invitrogen) to create Y99H single, A128T single, Y99H/A128T double mutants as well as two natural variants (A124N and T125A), and these 89.6 variant viruses were generated by transfecting 293T cells and culturing the produced viruses in CEMx174 cells. The IC50 of STP0404 against respective viruses were analyzed using GraphPad Prism (Version 9) and presented as means ± S.D. of triplicates. […]"}, "[2]": {"biological_target": "T1, IN-RNA binding (His6 tagged IN, HIV-1 TAR RNA) (Human immunodeficiency virus type 1 group M subtype B, UniProt P12497)", "T1 construct": "incubated with 100 nM His6 tagged IN", "assay": "Alpha Screen inhibition assay for IN binding to RNA", "assay_type": "biochemical", "procedure": "Primary antiviral activity of ALLINIs was observed during virion maturation, where they inhibit IN-RNA interactions, we examined the ability of STP0404 to inhibit recombinant IN binding to synthetic TAR RNA using Alpha screen based assay. Briefly, different concentrations of STP0404 were incubated with 100 nM His6 tagged IN in buffer containing 100 mM NaCl, 1 mM MgCl2, 1 mM DTT, 1mg/mL BSA, 25 mM Tris, pH 7.4 at 4°C for 2 hrs. This mixture was then added to the nickel acceptor beads while biotinylated-TAR RNA was added to the streptavidin donor beads. After 2-hrs incubation at 4°C, the RNA mixture was added to the IN-drug mixture and the reading was taken after 1 hr incubation at 4°C by PerkinElmer Life Sciences Enspire multimode plate reader. The IC50 values were calculated by OriginLab software."}, "IN-LEDGF/p75 binding": {"biological_target": "IN-LEDGF/p75 binding (Human immunodeficiency virus type 1 group M subtype B, UniProt P12497)", "assay": "HTRF-based inhibition assay for LEDGF/p75 binding to IN", "assay_type": "biochemical, HIV-1", "procedure": "We examined the ability of STP0404 to inhibit IN binding to LEDGF/p75 using another HTRF-based assay. Briefly, 10 nM His-tagged IN was pre-incubated in a binding buffer (150 mm NaCl, 2 mm MgCl2, 0.1% Nonidet P-40, 1 mg/ml BSA, 25 mm Tris, pH 7.4) with the compound for 30 min at room temperature, and then 10 nM FLAG-tagged LEDGF/p75 was added to the reaction. This was followed by addition of 6.6 nM anti-His6-XL665 and 0.45 nM anti-FLAG-EuCryptate antibodies (Cisbio, Inc., Bedford, MA)."}, "[3]": {"assay": "Hepatocyte stability determination", "assay_type": "in vitro ADME", "settings": "monkey and human hepatocytes", "procedure": "Incubation was conducted in 96-well cell culture plate format. The plates were labeled as T0, T15, T30, T60, T90, T0-MC, T90-MC and Blank, respectively. All plates were pre-warmed for 10 to 20 mins at 37±1°C in an incubator of 5% CO2 and saturated humidity. The vials of cryopreserved SD rat, beagle dog, cynomolgus monkey and human hepatocyte were removed from the liquid nitrogen container and immediately immersed in a water bath (the setting temperature was 37°C) for approximately 90 secs to allow the ice pellets melted. The melted ice pellets were transferred into pre-warmed 40 mL of Thawing Medium tubes mixed well by gently inverting the tubes then centrifuged at 100 ×g for 5 mins at room temperature. The supernatants were discarded and cell pellets were re-suspended by adding appropriate volumes of pre-warmed WEM. The cells viability of each species was determined using Trypan Blue exclusion. The viabilities of rat, dog, cynomolgus and human hepatocytes were 89.0%, 94.3%, 88.0% and 91.8%, respectively. Cells were finally diluted to 0.625×10^6 cells/mL with pre-warmed WEM. At each corresponding time point, the sample reactions were stopped by adding 150 μL of acetonitrile containing 200 ng/mL tolbutamide and 200 ng/mL labetalol as internal standards. All sample plates were thoroughly mixed and centrifuged at 3220 ×g for 20 mins. […]"}, "CYP3A and PXR": {"tested_on": "CYP3A and PXR", "assay": "PXR induction in DPX2 cells", "assay_type": "in vitro ADME", "procedure": "STP0404 to activate PXR, and thereby to induce CYP3A4 expression in DPX2 cell lines following in vitro administration. […] After 48 hrs incubation, the cell viability was assessed fluorimetrically via CellTiter-FluorTM. CYP3A-mediated metabolism and PXR activation are measured using luminescence with Luciferin-IPA and ONE-GloTM, respectively. The light intensity is directly proportional to the extent of PXR activation and accompanying gene transcription in the DPX2 cells (Wuxi AppTec, China)."}}, "data": [{"smiles": "Cc1nc2c(c(C)c(C)n2Cc2cnn(C)c2)c(-c2ccc(Cl)cc2)c1[C@H](OC(C)(C)C)C(=O)O", "note": "[STP0404]", "values": [{"measurement": "TI (TC50 / IC50)", "setting": "HIV-1 NL4-3; HIV-1 NL4-3 / MT4 cells", "value": "> 6,020"}, {"measurement": "IC50", "setting": "HIV-1 NL4-3; Human immunodeficiency virus 1, NL43, MT4", "value": "1.66 ± 0.32", "unit": "nM"}, {"measurement": "TC50", "setting": "CEMx174 cells", "value": "> 10,000 nM"}, {"measurement": "IC50 fold increase", "setting": "[1]", "value": 61.4, "unit": "fold"}, {"measurement": "IC50", "setting": "[2]", "value": "20 ± 3", "unit": "nM"}, {"measurement": "IC50", "setting": "IN-LEDGF/p75 binding", "value": "190 ± 70", "unit": "nM"}, {"measurement": "metabolic stability in hepatocytes (in words)", "setting": "[3]", "value": "much longer metabolic stability"}, {"measurement": "EC50 to activate drug metabolizing factors (in words)", "setting": "CYP3A and PXR", "value": "comparatively high concentrations"}]}]}
